PubChem BioAssay (NCI)
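Compound exposure: 48 hours, 5 concentrations, 96-well plates. The concentration for full growth arrest is given as TGI.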

Columns and labels:
Assay in all cases: growth of human tumour cells (NCI), 48 h
ACHN renal = tested on: ACHN renal
DU-145 prostate = tested on: DU-145 prostate
CAKI-1 renal = tested on: CAKI-1 renal
HS 578T breast = tested on: HS 578T breast
LOX IMVI melanoma = tested on: LOX IMVI melanoma
HT29 colon = tested on: HT29 colon
A549 NSCLC = tested on: A549 NSCLC
SK-OV-3 ovarian = tested on: SK-OV-3 ovarian
K-562 leukemia = tested on: K-562 leukemia
IGROV1 ovarian = tested on: IGROV1 ovarian
SK-MEL-28 melanoma = tested on: SK-MEL-28 melanoma
NCI-H460 lung = tested on: NCI-H460 lung
SF-295 CNS = tested on: SF-295 CNS
KM12 colon = tested on: KM12 colon
SW-620 colon = tested on: SW-620 colon
OVCAR-3 ovarian = tested on: OVCAR-3 ovarian
HCT-15 colon = tested on: HCT-15 colon
UACC-257 melanoma = tested on: UACC-257 melanoma
MOLT-4 leukemia = tested on: MOLT-4 leukemia
UACC-62 melanoma = tested on: UACC-62 melanoma
TK-10 renal = tested on: TK-10 renal
COLO 205 colon = tested on: COLO 205 colon
OVCAR-5 ovarian = tested on: OVCAR-5 ovarian
HCT-116 colon = tested on: HCT-116 colon
SN12C renal = tested on: SN12C renal
HOP-92 NSCLC = tested on: HOP-92 NSCLC
MALME-3M melanoma = tested on: MALME-3M melanoma
OVCAR-8 ovarian = tested on: OVCAR-8 ovarian
HOP-62 NSCLC = tested on: HOP-62 NSCLC
OVCAR-4 ovarian = tested on: OVCAR-4 ovarian
BT-549 breast = tested on: BT-549 breast
MDA-MB-231 breast = tested on: MDA-MB-231 breast
MDA-N = tested on: MDA-N
786-0 renal = tested on: 786-0 renal
HCC-2998 colon = tested on: HCC-2998 colon
UO-31 renal = tested on: UO-31 renal
PC-3 prostate = tested on: PC-3 prostate
SF-539 CNS = tested on: SF-539 CNS
SNB-75 CNS = tested on: SNB-75 CNS
HL-60(TB) leukemia = tested on: HL-60(TB) leukemia
MDA-MB-435 = tested on: MDA-MB-435
NCI-H23 lung = tested on: NCI-H23 lung
U251 CNS = tested on: U251 CNS
NCI/ADR-RES ovarian = tested on: NCI/ADR-RES ovarian
CCRF-CEM leukemia = tested on: CCRF-CEM leukemia
M14 melanoma = tested on: M14 melanoma
SR leukemia = tested on: SR leukemia
RPMI-8226 leukemia = tested on: RPMI-8226 leukemia
SK-MEL-2 melanoma = tested on: SK-MEL-2 melanoma
SK-MEL-5 melanoma = tested on: SK-MEL-5 melanoma
EKVX NSCLC = tested on: EKVX NSCLC
SNB-19 CNS = tested on: SNB-19 CNS
MCF7 breast = tested on: MCF7 breast
RXF 393 renal = tested on: RXF 393 renal
NCI-H226 lung = tested on: NCI-H226 lung
A498 renal = tested on: A498 renal
SF-268 CNS = tested on: SF-268 CNS
NCI-H522 lung = tested on: NCI-H522 lung
T-47D breast = tested on: T-47D breast

## c1ccc(CN2CCC3(CC2)SSC2(CCN(Cc4ccccc4)CC2)S3)cc1
ACHN renal
  TGI: > 100 µM
DU-145 prostate
  TGI: > 100 µM
CAKI-1 renal
  TGI: 85.5 µM
HS 578T breast
  TGI: > 100 µM
LOX IMVI melanoma
  TGI: > 100 µM
HT29 colon
  TGI: 43.5 µM
A549 NSCLC
  TGI: > 100 µM
SK-OV-3 ovarian
  TGI: > 100 µM
K-562 leukemia
  TGI: > 100 µM
IGROV1 ovarian
  TGI: > 100 µM
SK-MEL-28 melanoma
  TGI: > 100 µM
NCI-H460 lung
  TGI: 84.6 µM
SF-295 CNS
  TGI: 83.9 µM
KM12 colon
  TGI: > 100 µM
SW-620 colon
  TGI: > 100 µM
OVCAR-3 ovarian
  TGI: > 100 µM
HCT-15 colon
  TGI: > 100 µM
UACC-257 melanoma
  TGI: > 100 µM
MOLT-4 leukemia
  TGI: > 100 µM
UACC-62 melanoma
  TGI: > 100 µM
TK-10 renal
  TGI: > 100 µM
COLO 205 colon
  TGI: 33.3 µM
OVCAR-5 ovarian
  TGI: > 100 µM
HCT-116 colon
  TGI: > 100 µM
SN12C renal
  TGI: > 100 µM
HOP-92 NSCLC
  TGI: > 100 µM
MALME-3M melanoma
  TGI: > 100 µM
OVCAR-8 ovarian
  TGI: > 100 µM
HOP-62 NSCLC
  TGI: > 100 µM
OVCAR-4 ovarian
  TGI: > 100 µM
BT-549 breast
  TGI: > 100 µM
MDA-MB-231 breast
  TGI: > 100 µM
MDA-N
  TGI: > 100 µM
786-0 renal
  TGI: > 100 µM
HCC-2998 colon
  TGI: 93.6 µM
UO-31 renal
  TGI: > 100 µM
PC-3 prostate
  TGI: > 100 µM
SF-539 CNS
  TGI: > 100 µM
SNB-75 CNS
  TGI: > 100 µM
HL-60(TB) leukemia
  TGI: > 100 µM
MDA-MB-435
  TGI: > 100 µM
NCI-H23 lung
  TGI: > 100 µM
U251 CNS
  TGI: > 100 µM
NCI/ADR-RES ovarian
  TGI: > 100 µM
CCRF-CEM leukemia
  TGI: > 100 µM
M14 melanoma
  TGI: > 100 µM
SR leukemia
  TGI: > 100 µM
RPMI-8226 leukemia
  TGI: 98.4 µM
SK-MEL-2 melanoma
  TGI: > 100 µM

## O=c1[nH]nc(NNc2ccccc2)c2nnn(C3CCCCC3)c12
ACHN renal
  TGI: > 100 µM
DU-145 prostate
  TGI: > 100 µM
CAKI-1 renal
  TGI: > 100 µM
SK-MEL-5 melanoma
  TGI: > 100 µM
LOX IMVI melanoma
  TGI: > 100 µM
HT29 colon
  TGI: > 100 µM
EKVX NSCLC
  TGI: > 100 µM
A549 NSCLC
  TGI: > 100 µM
K-562 leukemia
  TGI: > 100 µM
SK-MEL-28 melanoma
  TGI: > 100 µM
NCI-H460 lung
  TGI: > 100 µM
SF-295 CNS
  TGI: > 100 µM
KM12 colon
  TGI: > 100 µM
OVCAR-3 ovarian
  TGI: > 100 µM
HCT-15 colon
  TGI: > 100 µM
UACC-257 melanoma
  TGI: > 100 µM
MOLT-4 leukemia
  TGI: > 100 µM
TK-10 renal
  TGI: > 100 µM
COLO 205 colon
  TGI: > 100 µM
OVCAR-5 ovarian
  TGI: > 100 µM
HCT-116 colon
  TGI: > 100 µM
SN12C renal
  TGI: > 100 µM
HOP-92 NSCLC
  TGI: > 100 µM
MALME-3M melanoma
  TGI: > 100 µM
OVCAR-8 ovarian
  TGI: > 100 µM
HOP-62 NSCLC
  TGI: > 100 µM
OVCAR-4 ovarian
  TGI: > 100 µM
BT-549 breast
  TGI: > 100 µM
MDA-MB-231 breast
  TGI: > 100 µM
MDA-N
  TGI: > 100 µM
HCC-2998 colon
  TGI: > 100 µM
UO-31 renal
  TGI: > 100 µM
PC-3 prostate
  TGI: > 100 µM
SNB-19 CNS
  TGI: > 100 µM
HL-60(TB) leukemia
  TGI: > 100 µM
MDA-MB-435
  TGI: > 100 µM
NCI-H23 lung
  TGI: > 100 µM
MCF7 breast
  TGI: > 100 µM
U251 CNS
  TGI: > 100 µM
NCI/ADR-RES ovarian
  TGI: > 100 µM
CCRF-CEM leukemia
  TGI: > 100 µM
M14 melanoma
  TGI: > 100 µM
SR leukemia
  TGI: > 100 µM
RPMI-8226 leukemia
  TGI: > 100 µM
SK-MEL-2 melanoma
  TGI: > 100 µM

## CC(C)C1=CC23CCC4C(C)(C(=O)O)CCCC4(C)C2CC1C1C(=O)N(c2ccccc2N2C(=O)C4C5CC6C7(C)CCCC(C)(C(=O)O)C7CCC6(C=C5C(C)C)C4C2=O)C(=O)C13 (stereo not drawn)
ACHN renal
  TGI: 21.8 µM
DU-145 prostate
  TGI: 21.8 µM
HS 578T breast
  TGI: 34.1 µM
SK-MEL-5 melanoma
  TGI: 17.5 µM
RXF 393 renal
  TGI: 32.1 µM
HT29 colon
  TGI: 10.6 µM
EKVX NSCLC
  TGI: 17.9 µM
A549 NSCLC
  TGI: 38.7 µM
NCI-H226 lung
  TGI: 30.2 µM
K-562 leukemia
  TGI: 73 µM
KM12 colon
  TGI: 13.8 µM
SW-620 colon
  TGI: 30.6 µM
OVCAR-3 ovarian
  TGI: 23.4 µM
HCT-15 colon
  TGI: 29.8 µM
A498 renal
  TGI: 13.6 µM
MOLT-4 leukemia
  TGI: 14.2 µM
TK-10 renal
  TGI: 27.3 µM
COLO 205 colon
  TGI: 17.8 µM
OVCAR-5 ovarian
  TGI: 25 µM
SF-268 CNS
  TGI: 16.5 µM
HCT-116 colon
  TGI: 18.2 µM
SN12C renal
  TGI: 24.8 µM
HOP-92 NSCLC
  TGI: 32.5 µM
MALME-3M melanoma
  TGI: 28.3 µM
HOP-62 NSCLC
  TGI: 18.9 µM
OVCAR-4 ovarian
  TGI: 38.8 µM
MDA-MB-231 breast
  TGI: 32.3 µM
MDA-N
  TGI: 19.4 µM
786-0 renal
  TGI: 62.8 µM
HCC-2998 colon
  TGI: 16.1 µM
UO-31 renal
  TGI: 32.3 µM
NCI-H522 lung
  TGI: 23 µM
PC-3 prostate
  TGI: 14 µM
SNB-19 CNS
  TGI: 16 µM
SF-539 CNS
  TGI: 12.5 µM
MDA-MB-435
  TGI: 13.1 µM
NCI-H23 lung
  TGI: 11.6 µM
T-47D breast
  TGI: 42.5 µM
U251 CNS
  TGI: 12 µM
CCRF-CEM leukemia
  TGI: 22.1 µM
M14 melanoma
  TGI: 19.8 µM
SR leukemia
  TGI: 17.3 µM
RPMI-8226 leukemia
  TGI: > 100 µM
SK-MEL-2 melanoma
  TGI: 26.1 µM

## COc1ccc2c3c1O[C@H]1C(OC)C=CC4C(C2)N(Cc2cccs2)CCC341 (stereo partly drawn)
CAKI-1 renal
  TGI: > 100 µM
HS 578T breast
  TGI: > 100 µM
LOX IMVI melanoma
  TGI: > 100 µM
HT29 colon
  TGI: > 100 µM
EKVX NSCLC
  TGI: > 100 µM
A549 NSCLC
  TGI: > 100 µM
SK-OV-3 ovarian
  TGI: > 100 µM
K-562 leukemia
  TGI: > 100 µM
IGROV1 ovarian
  TGI: > 100 µM
NCI-H460 lung
  TGI: > 100 µM
SF-295 CNS
  TGI: > 100 µM
SW-620 colon
  TGI: > 100 µM
OVCAR-3 ovarian
  TGI: > 100 µM
HCT-15 colon
  TGI: > 100 µM
UACC-257 melanoma
  TGI: > 100 µM
MOLT-4 leukemia
  TGI: > 100 µM
TK-10 renal
  TGI: > 100 µM
OVCAR-5 ovarian
  TGI: > 100 µM
SF-268 CNS
  TGI: > 100 µM
HCT-116 colon
  TGI: > 100 µM
SN12C renal
  TGI: > 100 µM
HOP-92 NSCLC
  TGI: > 100 µM
MALME-3M melanoma
  TGI: > 100 µM
OVCAR-8 ovarian
  TGI: > 100 µM
HOP-62 NSCLC
  TGI: > 100 µM
BT-549 breast
  TGI: > 100 µM
MDA-N
  TGI: > 100 µM
786-0 renal
  TGI: > 100 µM
HCC-2998 colon
  TGI: > 100 µM
UO-31 renal
  TGI: > 100 µM
NCI-H522 lung
  TGI: > 100 µM
SNB-19 CNS
  TGI: > 100 µM
HL-60(TB) leukemia
  TGI: > 100 µM
MDA-MB-435
  TGI: > 100 µM
NCI-H23 lung
  TGI: > 100 µM
NCI/ADR-RES ovarian
  TGI: > 100 µM
CCRF-CEM leukemia
  TGI: > 100 µM
M14 melanoma
  TGI: > 100 µM
SR leukemia
  TGI: > 100 µM
RPMI-8226 leukemia
  TGI: > 100 µM
